# According to patent US20060095978A1, “Screening assay” (priority 2002, published 2006):
# Legend:
# [1] = test system: IFN-γ; assay: Serum IFN-γ in OVA257-264 stimulated OT-1 mice (sandwich ELISA); assay type: in vivo, mouse
# Method: (§1) OT-1 mice are obtained as described in Hogquist et al., 1994, Cell 76(1)17-27. The animals are maintained in Microvent positive air supply cages (22±1° C., 55±5% relative humidity, 50-70 changes of fresh air/hour and 12 hours day and night cycle) with sawdust bedding. Standard laboratory mouse chow (SNIFF, Soest, Germany) and drinking water is given ad libitum. Groups of two to four, 8-10 weeks old, male or female OT-1 mice weighing between 20-25 g are used for the experiments described. The animals are grouped (4 per group) in type II Macrolon cages one day before the experiment.
# (§2) Cells are stimulated as described above and supernatant is harvested after 48 hours. The quantity of cytokines released by T cells into the culture medium after antigen stimulation is assayed by conventional sandwich ELISA. […] Specifically bound cytokines are quantified using biotinylated secondary antibodies JES6-5H4 (anti-IL-2), BVD6-24G2 (anti-IL-4), TRFK4 (anti-IL-5), SXC-1 (anti-IL-10) and XMG1.2 (anti-IFN-γ) followed by extravidin peroxidase and TMB substrate (both from Sigma). Absorption is measured at 450 and 690 nm on a Spectramax 340PC reader (Molecular Devices, Sunnyvale, Calif.). All cytokines are quantified with standard curves obtained with known amounts of recombinant mouse cytokines using SoftMax 3 software. […]
# [2] = test system: CD69 on CD8+ T cells; assay: CD69 expression on CD8+ T cells of antigen-stimulated OT-1 mice (FACS); assay type: in vivo, mouse
# Method: as §1
# Doses of 3, 0.3 and 0.1 mg/kg b.w. are administered orally by gavage 2 hours before antigen challenge. […]
# (§3) Single cell suspensions of spleen or blood containing approximately 1×10^6 cells in 100 μl of FACS buffer are used for staining. […] Lymphocytes are gated in the FSC/SSC dot blot according to size and granularity and further analyzed for expression of CD8, TCR Vβ5 expression and activation markers. Data are presented as original dot blots or are calculated from dot blots as percentage of cells positively stained for TCR or activation markers within the CD8^+ population.
# Data calculated from FACS analysis or serum cytokine determination are given as individual values for each animal. Data are analysed for normal distribution and then the ANOVA test for multiple comparison is applied using SigmaStat software. […]
# [3] = test system: CD8+ T cells; assay: Frequency of CD8+ T cells in blood and spleen of OT-1 mice (FACS); assay type: in vivo, mouse
# Method: as §1
# Doses of 3, 0.3 and 0.1 mg/kg b.w. are administered orally by gavage 2 hours before antigen challenge. The compound is diluted with solvent (Neoral Placebo) and given in a volume of 0.2 ml. Animals in the control group receive the solvent only. Ovalbumin-derived peptide (OVA257-264, […], >80% purity, piChemie R&D, Graz, Austria) or whole OVA (Sigma) are used as antigens. Both are diluted in PBS and administerd i.p. in a final volume of 0.2 ml. At various time points after OVA257-264 peptide injection about 200 μl blood is withdrawn from the retro-orbital plexus under ether anesthesia. In order to avoid coagulation, blood is collected in EDTA-containing buffer. Mice are killed by cervical dislocation and the spleen is excised. Single cell suspension are prepared in PBS by gently pressing the spleen through a 100 μm cell strainer. Finally, blood and spleen cells are washed with FACS buffer (PBS, 1 g/l EDTA, 1 g/l NaN3, 10% FCS; pH 7.1) and taken up in the same buffer for FACS analysis.
# as §3
# [4] = test system: CD25 on CD8+ T cells; assay: CD25 expression on CD8+ T cells of peptide-stimulated OT-1 mice (FACS); assay type: in vivo, mouse; settings: 100 μg OVA257-264, after 7 hours
# Method: The animals are maintained in Microvent positive air supply cages (22±1° C., 55±5% relative humidity, 50-70 changes of fresh air/hour and 12 hours day and night cycle) with sawdust bedding.
# [5] = test system: IL-2; assay: Serum IL-2 in OVA257-264 stimulated OT-1 mice (sandwich ELISA); assay type: in vivo, mouse
# Method: as §1, §2
# [6] = test system: IFN-γ; assay: Serum IFN-γ in OVA/OVA323-339 stimulated DO11.10 mice (ELISA); assay type: in vivo, mouse; settings: for IFN-γ level in pg/ml serum after day 0: 3 hours after first i.p. injection; for IFN-γ level in pg/ml serum after day 14: 3 hours after second i.p. injection
# Method: Groups of six, 8-10 weeks old, male or female DO11.10 mice weighing between 20-22 g are obtained as described in Murphy K. M. et al. 1990, Science 250:1720-1722. The animals are maintained in Microvent positive air supply cages (22±1° C., 55±5% relative humidity, 50-70 changes of fresh air/hour and 12 hours day and night cycle) with sawdust bedding. Standard laboratory mouse chow (SNIFF, Soest, Germany) and drinking water is given ad libidum. The animals are used for the study after an adaptation period of 10-14 days and grouped (6 per group) in type II Macrolon cages one day before the experiment.
# Groups of six DO11.10 mice are i.p. injected with 10 μg of ovalbumin (OVA, Sigma, St. Louis, USA) absorbed to 2 mg of Al(OH)3 (Alu Gel S; 2% Al(OH)3, Serva, Heidelberg, FRG) and diluted with saline to a volume of 0.2 ml or various amounts (1, 3, 10, 30, or 90 μg per mouse) of alum-precipitated OVA323-339 peptide (98% purity, piChem R&D, Graz Austria) in 0.2 ml on days 0 and 14. Before and at different time points on days 0 and 14 after the OVA or OVA323-339 peptide administration about 200 μl of blood are collected by puncture of the retro-orbital plexus under ether anesthesia.
# The sera are collected and stored frozen at −20° C. until analyzed. […]
# Murine IL-2, IFN-γ and IL-4 are analyzed by immunoassays (Quantikine R&D Systems, Minneapolis, Minn., USA). Results are expressed as pg per ml serum expressed as mean±SEM pg of the cytokine indicated per ml serum. Test and control groups are evaluated by Dunn test by Kruskall-Wallis One Way Anova using the SigmaStat® program. […]
# Mice of the control group are injected with alum. Blood is collected before and at 2, 4, and 6 hours after the first peptide injection. INF-γ is determined in the sera by an ELISA. Results are expressed as mean pg per ml serum±SEM. […]
# [7] = test system: Splenocytes of OT-1 mice; assay: Cytokine production assay, OT-1 splenocytes; assay type: cell-based, mouse; settings: high amounts of OVA protein
# Method: Cells are stimulated as described above and supernatant is harvested after 48 hours. The quantity of cytokines released by T cells into the culture medium after antigen stimulation is assayed by conventional sandwich ELISA. Microtiter plates (Nunc-Immunoplate™) are coated with the cytokine-specific capture antibodies JES6-1A12 (anti-IL-2), 11B11 (anti-IL-4), TRFK5 (anti-IL-5), JES5-2A5 (anti-IL-10) or R4-6A2 (anti-IFN-γ) at 4° overnight. Supernatants are incubated on the coated plates for 2 hours. Specifically bound cytokines are quantified using biotinylated secondary antibodies JES6-5H4 (anti-IL-2), BVD6-24G2 (anti-IL-4), TRFK4 (anti-IL-5), SXC-1 (anti-IL-10) and XMG1.2 (anti-IFN-γ) followed by extravidin peroxidase and TMB substrate (both from Sigma). Absorption is measured at 450 and 690 nm on a Spectramax 340PC reader (Molecular Devices, Sunnyvale, Calif.). All cytokines are quantified with standard curves obtained with known amounts of recombinant mouse cytokines using SoftMax 3 software. All mAbs and recombinant mouse cytokine standards are purchased from BD PharMingen, Heidelberg, Germany.
# [8] = test system: Splenocytes of OT-1 mice; assay: T cell proliferation assay, OT-1 splenocytes; assay type: cell-based, mouse; settings: high amounts of OVA protein
# Method: Splenocytes (4×10^5 cells/well) of OT-1 mice are stimulated in 200 μl final volume in 96-well flat bottomed plates with titrated amounts of OVA or OVA257-264 peptide at 37°. As medium RPMI 1640 supplemented with 10% FCS, 2.0 g/l NaHCO3, 2 mM L-glutamin, 100 IU/ml penicillin, 100 μg/ml streptomycin and 5×10^−5 M β-mercaptoethanol (Sigma, Vienna, Austria) is used. After 48 hours, cells are pulsed with 0.5 μCi ^3H-thymidine for 8 hours and the incorporated radioactivity is measured on a liquid scintillation β-counter (Trilux, 1450 Microbeta, Wallac, Turku, Finland).
# [9] = peptide-induced activation in OT-1 mice
molecule,measurement,setting,value
OVA257-264: peptide derived from chicken ovalbumin containing amino acids from position 257 to 264,time of early peak of serum IFN-γ,[1]; [9],4 h
same,minimal amount required to induce significant serum quantities of IFN-γ,"[1]; per animal, i.p., 4 hours",30 µg
same,maximal up-regulation of CD69,"[2]; 100 μg OVA257-264, after 3 hours",ca. 155 fold increase
same,change of CD8+ T cells in the spleen,[3]; 100 μg OVA257-264 i.p.,no significant decrease
same,frequency of CD8+ expressing cells among the lymphocyte population in the blood,"[3]; 100 μg OVA257-264 i.p., within 3 hours, from around 30%",less than 2.5%
same,maximal up-regulation of CD25,[4],ca. 40 fold increase
same,time of early peak of serum IL-2,[5]; [9],4 h
same,minimal amount required to induce significant serum quantities of IL-2,"[5]; per animal, i.p., 4 hours",30 µg
"p/p: 10 μg OVA323-339 peptide/10 μg OVA323-339 peptide i.p. on days 0 and 14 (KISQAVHAAHAEINEAG; UniProt P01012 323-339, looked up, fragment)",IFN-γ level in pg/ml serum after day 0,[6],483.215 ± 134.641 pg/mL
same,IFN-γ level in pg/ml serum after day 14,[6],554.136 ± 110.652 pg/mL
"OVA: chicken ovalbumin (protein, UniProt P01012 2-386, looked up) Ovalbumin: GSIGAASMEFCFDVFKELKVHHANENIFYCPIAIMSALAMVYLGAKDSTRTQINKVVRFDKLPGFGDSIEAQCGTSVNVHSSLRDILNQITKPNDVYSFSLASRLYAEERYPILPEYLQCVKELYRGGLEPINFQTAADQARELINSWVESQTNGIIRNVLQPSSVDSQTAMVLVNAIVFKGLWEKAFKDEDTQAMPFRVTEQESKPVQMMYQIGLFRVASMASEKMKILELPFASGTMSMLVLLPDEVSGLEQLESIINFEKLTEWTSSNVMEERKIKVYLPRMKMEEKYNLTSVLMAMGITDVFSSSANLSGISSAESLKISQAVHAAHAEINEAGREVVGSAEAGVDAASVSEEFRADHPFLFCIKHIATNAVLFFGRCVSP",cytokine release of OT-1 splenocytes in vitro,[7],cytokine release
same,increase of CD69 expression in the spleen,"[2]; 1 mg OVA i.p., late (7-24 hours)",≤ 2.5 fold
same,frequency of CD8+ T cells in both spleen and blood,"[3]; 1 mg OVA i.p., over 48 hours",declines marginally
same,serum INF-γ levels after challenge with OVA-protein,[6]; given amount (10 μg) of OVA-protein,under the detection limit
same,INF-γ levels after second OVA exposure versus before,"[6]; primary OVA, second OVA exposure 2 weeks later",fail to increase
same,serum INF-γ levels versus alum alone,[6]; primary sensitization with 10 μg of OVA,does not change
same,proliferation of OT-1 splenocytes in vitro,[8],induce proliferation
"o/o: 10 μg OVA/10 μg OVA i.p. on days 0 and 14 (protein, UniProt P01012 2-386, looked up) Ovalbumin: GSIGAASMEFCFDVFKELKVHHANENIFYCPIAIMSALAMVYLGAKDSTRTQINKVVRFDKLPGFGDSIEAQCGTSVNVHSSLRDILNQITKPNDVYSFSLASRLYAEERYPILPEYLQCVKELYRGGLEPINFQTAADQARELINSWVESQTNGIIRNVLQPSSVDSQTAMVLVNAIVFKGLWEKAFKDEDTQAMPFRVTEQESKPVQMMYQIGLFRVASMASEKMKILELPFASGTMSMLVLLPDEVSGLEQLESIINFEKLTEWTSSNVMEERKIKVYLPRMKMEEKYNLTSVLMAMGITDVFSSSANLSGISSAESLKISQAVHAAHAEINEAGREVVGSAEAGVDAASVSEEFRADHPFLFCIKHIATNAVLFFGRCVSP",IFN-γ level in pg/ml serum after day 0,[6],3.788 ± 1.495 pg/mL
same,IFN-γ level in pg/ml serum after day 14,[6],6.796 ± 6.189 pg/mL
